In patent publication US20230203058A1, “MACROCYCLIC DIAMINE DERIVATIVES AS ENT INHIBITORS FOR THE TREATMENT OF CANCERS, AND COMBINATION THEREOF WITH ADENOSINE RECEPTOR ANTAGONISTS” (ITEOS BELGIUM SA, priority 2020, published 2023):

Target: T1, human ENT1 (Homo sapiens, UniProt Q99808)
T1 sequence (Q99808 1-456): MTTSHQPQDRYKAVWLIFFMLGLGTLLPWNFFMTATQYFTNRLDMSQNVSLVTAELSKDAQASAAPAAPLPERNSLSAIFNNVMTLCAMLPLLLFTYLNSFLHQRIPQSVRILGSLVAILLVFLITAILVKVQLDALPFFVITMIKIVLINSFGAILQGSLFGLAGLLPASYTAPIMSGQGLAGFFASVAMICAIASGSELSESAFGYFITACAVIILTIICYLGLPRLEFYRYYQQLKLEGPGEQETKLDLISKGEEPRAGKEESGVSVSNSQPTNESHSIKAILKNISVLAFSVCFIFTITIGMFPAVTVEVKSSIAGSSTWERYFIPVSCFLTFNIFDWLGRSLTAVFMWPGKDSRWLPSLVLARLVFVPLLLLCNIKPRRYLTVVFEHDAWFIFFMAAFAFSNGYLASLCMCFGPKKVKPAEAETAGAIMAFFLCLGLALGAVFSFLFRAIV
Experiment: ENT1 binding assay (competition with Sahenta-DY647 on JAR cells)
Parameters: JAR cells expressing ENT1 were bought from ATCC® (HTB-144TM); host or cells: JAR cells (human choriocarcinoma line; whole cells)
Conditions: competition with Sahenta-DY647 100 nM, 4° C.
Protocol: The present assay aims at showing that the compounds of the present invention can bind to human ENT1. The principle of the assay is a competition between the compounds of this invention and Sahenta-DY647, an ENT1 inhibitor that emits fluorescence (Ex = 630 nm, Em = 670 nm). By measuring the fluorescence at the end of the assay we could assess the binding potency of the compounds of the present invention.
JAR cells expressing ENT1 were bought from ATCC® (HTB-144TM). Cells were cultured in RPMI 1640 medium (LONZA®, #BE12-702F/U1) supplemented with 10% FBS (GIBCO®, #10270-106), 10 mM Hepes (LONZA®, #BE17-737E), 1 mM Sodium Pyruvate (LONZA®, #BE13-115E) and 2% Penicillin/Streptomycin (LONZA®, #DE17-603E) at 37° C. and 5% CO2. The assay was conducted on the following buffer: HBSS (LONZA®, #LO-527F) supplemented with 10 mM Hepes (LONZA®, #BE17-737E) and 0.1% BSA (Miltenyi®, #130-091-376) on the day of the assay. JAR cells were resuspended in the described buffer. Compounds of the present invention and Sahenta-DY647 were diluted 200X in the described buffer.
A total of 50000 cells were pre-incubated for 30 min at 4° C. with the compounds of the present invention before adding the corresponded IC90 of Sahenta-DY647 (100 nM) and incubate once more for 30 min at 4° C. The total volume of the reaction was 100 µL (50 µL of cells, 25 µL of the compounds of the present invention and 25 µL of Sahenta-DY647) in a 96 well plate, U-bottom (Greiner®, #650-180). The plates were washed 2X by centrifugation (4 min, 400 rcf at 4° C.) in the same buffer. Cells were resuspended in 70 µL of the buffer and 50 µL was transferred to a Black 384 Optiplate (PerkinElmer®, #6007279). Fluorescence (Ex = 630 nm, Em = 670 nm) was acquired on a Spectramax i3x (Molecular Devices®).

SMILES	IC50 [nM]
COc1cc(C(=O)O[C@H]2CCCOc3cccc(c3)C(=O)OCCCN3CCCN(CC2)CC3)cc(OC)c1OC (stereo in doubt) [Compound 17, (12S)-6-oxo-5,8-dioxa-1(1,4)-diazepana-7(1,3)-benzenacyclotetradecaphane-12-yl 3,4,5-trimethoxybenzoate]	> 500
O=C1NCCCN2CCCN(CC[C@@H](OC(=O)c3ccccc3)CCCOc3cccc1c3)CC2 (stereo in doubt) [Compound 19, (12S)-6-oxo-8-oxa-5-aza-1(1,4)-diazepana-7(1,3)-benzenacyclotetradecaphane-12-yl benzoate]	> 500
O=C1NCCCN2CCCN(CC[C@H](OC(=O)c3ccccc3)CCCOc3cccc1c3)CC2 (stereo in doubt) [Compound 20, (12R)-6-oxo-8-oxa-5-aza-1(1,4)-diazepana-7(1,3)-benzenacyclotetradecaphane-12-yl benzoate]	> 500
COc1cc(C(=O)O[C@H]2CCCOc3cc(cc(OC)c3OC)C(=O)NCCCN3CCCN(CC2)CC3)cc(OC)c1OC [Compound 9, (12S)-74,75-dimethoxy-6-oxo-8-oxa-5-aza-1(1,4)-diazepana-7(1,3)-benzenacyclotetradecaphane-12-yl 3,4,5-trimethoxybenzoate]	> 500
COc1cc(C(=O)O[C@@H]2CCCn3ncc4c(Cl)cc(cc43)C(=O)NCCCN3CCCN(CC2)CC3)cc(OC)c1OC [Compound 16, (10R)-14-chloro-2-oxo-11H-3-aza-1(6, 1)-indazola-7(1,4)-diazepanacyclotridecaphane-10-yl 3,4,5-trimethoxybenzoate]	20 to 500
COc1cc(C(=O)OC2CCCOc3cc(cc(Cl)c3Cl)C(=O)OCCCN3CCCN(CC2)CC3)cc(OC)c1OC (stereo not drawn) [Compound 21, 74,75-dichloro-6-oxo-5,8-dioxa-1(1,4)-diazepana-7(1,3)-benzenacyclotetradecaphane-12-yl 3,4,5-trimethoxybenzoate]	1 to 20
COc1cc(C(=O)O[C@H]2CCCOc3cc(cc(Cl)c3Cl)C(=O)OCCCN3CCCN(CC2)CC3)cc(OC)c1OC [Compound 22, (12S)-74,75-dichloro-6-oxo-5,8-dioxa-1(1,4)-diazepana-7(1,3)-benzenacyclotetradecaphane-12-yl 3,4,5-trimethoxybenzoate]	20 to 500
COc1cc(C(=O)O[C@@H]2CCCOc3cc(cc(Cl)c3Cl)C(=O)OCCCN3CCCN(CC2)CC3)cc(OC)c1OC [Compound 23, (12R)-74,75-dichloro-6-oxo-5,8-dioxa-1(1,4)-diazepana-7(1,3)-benzenacyclotetradecaphane-12-yl 3,4,5-trimethoxybenzoate]	20 to 500
COc1cc(C(=O)O[C@H]2CCCn3cc4c(Cl)cc(cc4n3)C(=O)NCCCN3CCCN(CC2)CC3)cc(OC)c1OC [Compound 25, (11Z, 16E, 10S)-14-chloro-2-oxo-12 H-3-aza-1(6,2)-indazola-7(1,4)-diazepanacyclotridecaphane-10-yl 3,4,5-trimethoxybenzoate]	> 500
COc1cc2cc(c1OC)OCCCC(OC(=O)c1ccc(F)c(Cl)c1)CCN1CCCN(CCCOC2=O)CC1 (stereo not drawn) [Compound 27, 74,75-dimethoxy-6-oxo-5,8-dioxa-1(1,4)-diazepana-7(1,3)-benzenacyclotetradecaphane-12-yl 3-chloro-4-fluorobenzoate]	1 to 20
COc1cc(C(=O)O[C@@H]2CCCOc3cc(cc(Cl)c3C(N)=O)C(=O)NCCCN3CCCN(CC2)CC3)cc(OC)c1OC [Compound 28, (12R)-74-carbamoyl-75-chloro-6-oxo-8-oxa-5-aza-1(1,4)-diazepana-7(1,3)-benzenacyclotetradecaphane-12-yl 3,4,5-trimethoxybenzoate]	1 to 20
COc1cc2cc(c1OC)OCCCC(OC(=O)c1ccc(F)cc1)CCN1CCCN(CCCOC2=O)CC1 (stereo not drawn) [Compound 29, 74,75-dimethoxy-6-oxo-5,8-dioxa-1(1,4)-diazepana-7(1,3)-benzenacyclotetradecaphane-12-yl 4-fluorobenzoate]	1 to 20
COc1cc2cc(c1OC)OCCC[C@@H](OC(=O)c1ccccc1)CCN1CCCN(CCCOC2=O)CC1 [Compound 31, (12R)-74,75-dimethoxy-6-oxo-5,8-dioxa-1(1,4)-diazepana-7(1,3)-benzenacyclotetradecaphane-12-yl benzoate]	1 to 20
COc1cc2cc(c1OC)OCCC[C@@H](OC(=O)c1ccccc1)CCN(C)CCN(C)CCCOC2=O [Compound 35, (R)-15,16-dimethoxy-9,12-dimethyl-17-oxo-2,16-dioxa-9,12-diaza-1(1,3)-benzenacycloheptadecaphane-6-yl benzoate]	1 to 20
COc1cc2cc(c1OC)OCCCC(O)CCN1CCCN(CCCOC2=O)CC1 (stereo not drawn) [Compound 38, 12-hydroxy-74,75-dimethoxy-5,8-dioxa-1(1,4)-diazepana-7(1,3)-benzenacyclotetradecaphan-6-one]	> 500
COc1cc2cc(c1OC)OCCC[C@H](O)CCN1CCCN(CCCOC2=O)CC1 [Compound 40, (12S)-12-hydroxy-74,75-dimethoxy-5,8-dioxa-1(1,4)-diazepana-7(1,3)-benzenacyclotetradecaphan-6-one]	> 500

More lines, now with the values ahead:

IC50 [nM]	SMILES
> 500	COc1cc2cc(c1OC)OCCC[C@H](O/N=C/c1ccccc1)CCN1CCCN(CCCNC2=O)CC1 (stereo in doubt) [Compound 116, (E)-benzaldehyde O-((12S)-74,75-dimethoxy-6-oxo-8-oxa-5-aza-1(1,4)-diazepana-7(1,3)-benzenacyclotetradecaphane-12-yl) oxime]
> 500	COc1cc(C(=O)NC2CCCOc3cc(cc(OC)c3OC)C(=O)OCCCN3CCCN(CC2)CC3)cc(OC)c1OC (stereo not drawn) [Compound 3, N-(74,75-dimethoxy-6-oxo-5,8-dioxa-1(1,4)-diazepana-7(1,3)-benzenacyclotetradecaphane-12-yl)-3,4,5-trimethoxybenzamide]
> 500	COc1cc(C(=O)O[C@H]2CCCOc3cc(cc(OC)c3OC)C(=O)N(C)CCCN3CCCN(CC2)CC3)cc(OC)c1OC [Compound 12, (12S)-74,75-dimethoxy-5-methyl-6-oxo-8-oxa-5-aza-1(1,4)-diazepana-7(1,3)-benzenacyclotetradecaphane-12-yl 3,4,5-trimethoxybenzoate]
> 500	COc1cc(C(=O)O[C@H]2CCCn3ncc4c(Cl)cc(cc43)C(=O)NCCCN3CCCN(CC2)CC3)cc(OC)c1OC [Compound 15, (10S)-14-chloro-2-oxo-11H-3-aza-1(6,1)-indazola-7(1,4)-diazepanacyclotridecaphane-10-yl 3,4,5-trimethoxybenzoate]
20 to 500	COc1cc2cc(c1OC)OCCCC(OC(=O)c1ccc(Cl)c(Cl)c1)CCN1CCCN(CCCOC2=O)CC1 (stereo not drawn) [Compound 24, 74,75-dimethoxy-6-oxo-5,8-dioxa-1(1,4)-diazepana-7(1,3)-benzenacyclotetradecaphane-12-yl 3,4-dichlorobenzoate]
> 500	COc1cc(C(=O)O[C@@H]2CCCn3cc4c(Cl)cc(cc4n3)C(=O)NCCCN3CCCN(CC2)CC3)cc(OC)c1OC [Compound 26, (11Z, 16E, 10R)-14-chloro-2-oxo-12H-3-aza-1(6,2)-indazola-7(1,4)-diazepanacyclotridecaphane-10-yl 3,4,5-trimethoxybenzoate]
20 to 500	COc1cc2cc(c1OC)OCCCC(OC(=O)c1ccc(OC(F)(F)F)cc1)CCN1CCCN(CCCOC2=O)CC1 (stereo not drawn) [Compound 30, 74,75-dimethoxy-6-oxo-5,8-dioxa-1(1,4)-diazepana-7(1,3)-benzenacyclotetradecaphane-12-yl 4-(trifluoromethoxy)benzoate]
1 to 20	COc1cc(C(=O)O[C@@H]2CCCOc3cc(cc(OC)c3OC)C(=O)OCCCC3CCN(CC3)CC2)cc(OC)c1OC [Compound 34, (R)-74,75-dimethoxy-6-oxo-5,8-dioxa-1(4,1)-piperidina-7(1,3)-benzenacyclotetradecaphane-12-yl 3,4,5-trimethoxybenzoate]
